Measurements published in US20160318844A1, “PROSTACYCLIN COMPOUNDS, COMPOSITIONS AND METHODS OF USE THEREOF” (Insmed Incorporated, priority 2015, published 2016).
Entries after “also recorded” stand apart in the source; their conditions may differ. Read-outs that look alike come from different tables or passages of the source.

What was measured:
[1] = test system: NR8383 cells; assay: NR8383 cell proliferation assay; assay type: cell-based, rat; conditions: Table 9, unformulated alkyl esters, (0.195 μM-25 μM), 72 hour incubation
Protocol: Rat alveolar NR8383 cells were harvested when the monolayer was 50-90% confluent (use passage 5-11). Because the NR8383 cells include both adherent and non-adherent cells, media was transferred to a 50 mL Falcon tube. To obtain the cells remaining in the flask, 2 mL of plain media was added, and the remaining cells were scraped out of the 75 cm^2 flask with a cell scraper and added to the 50 mL tube. […] SH30071.03)+1×Pen-Strep (Life Technologies, cat #: 15410-122)). Cell number was determined using a hemacytometer. […] Measurements and calculations were made as described above for the CHO-K1 cells. Rat alveolar NR8383 cells were challenged with the same treprostinil derivative compositions: […]

[2] = test system: CHO-K1 cells; assay: CHO-K1 cell proliferation assay (Presto Blue); conditions: Table 9, unformulated alkyl esters, (0.195 μM-25 μM), 48 hour incubation
Protocol: CHO-K1 cells were harvested when the cell monolayer was 50-90% confluent (use passage 4-11). Media was aspirated out of the flask, and cells were rinsed with 2 mL of F12 media. Next, 1 mL of pre-warmed (37° C.) 0.25% trypsin-EDTA (Life Technologies, Cat#: 25300054) was added, and cells were dislodged from the flask by tapping it on the side. Complete growth media (F12 (Life Technologies, Cat #: 31765092)+10% FBS (Hyclone, Cat #: SH30071.03)+1× Pen-Strep (Life Technologies, cat #15140-122) was then added at a volume of 10 mL. Cells were centrifuged at 250×g for 5 minutes at room temperature, and the media was aspirated. The cell pellet was resuspended in 10 mL complete growth media. Cell number was determined using a hemacytometer. Cells were then seeded at 2000 cells per well of a 96-well plate in 100 μL of complete growth media. The plate was incubated overnight at 37° C. and 5% CO2 in a water-jacketed incubator.
The next day, 80 μL of fresh complete media was added to each well, and CHO-K1 cells were challenged with treprostinil compound and composition treatments. The working solutions were prepared at 10× concentration, and following 2 fold serial dilutions, 20 μL aliquots were added per well to arrive at a final 1× concentration. Following a 48 hour incubation at 37° C. and 5% CO2 in a water-jacketed incubator, the inhibitory effect on cell proliferation was determined. Plates were analyzed using 20 μL of Presto Blue reagent (Life Technologies, cat #: A13262) per well. The reagent was mixed, and plates were incubated for 1 hour at 37° C. and 5% CO2 in a waterjacketed incubator. Plates were read using either a CytoFluor Series 4000 (PerSeptive BioSystems) or Synergy Neo microplate reader (BioTek) with emission λ: 590 nm and excitation λ: 560 nm. […]
CHO-K1 cells were challenged with treprostinil alkyl esters, i.e., TR compounds of Formula (A), having the following R2 groups: […]
C2, C3, C4, C5, C6, C8, C10 or C12 straight chain alkyl, at dosages ranging from 0.098 μM to 25 μM. Following a 48 hour incubation period, the inhibitory effect on cell proliferation was determined.
Following a 72 hour incubation period, the inhibitory effect on cell proliferation was determined. Following a 48 hour incubation period, the inhibitory effect on cell proliferation was determined. […]

[3] = test system: esterase; assay: Esterase mediated conversion of treprostinil compounds to treprostinil; assay type: in vitro ADME; conditions: esterase at 37° C., up to 1 hr
Protocol: A set of studies was conducted to determine the conversion kinetics to treprostinil of linear treprostinil compounds versus various branched treprostinil compounds. 0.4 mM of linear C8-TR or branched treprostinil compounds 2-dimethyl-1-propanyl-TR, 3,3-dimethyl-1-butanyl-TR, 2-ethyl-1-butanyl-TR, 5-nonanyl-TR, or 3-pentanyl-TR (see below for structures) were incubated with 0.2 U esterase at 37° C. for 1 hour, and the conversion (% of total) was calculated at 0.25, 0.5, 0.75, or 1 hour incubation time. • C8-TR (i.e., the compound of Formula (A) wherein R2=
The conversion is relative to the C8-TR compound and conversion was measured at 1 hr. post esterase incubation. • C8-TR (i.e., the compound of Formula (A) wherein R2=
Conversion was measured at 1 hr. post esterase incubation. • 4C7-TR (i.e., the compound of Formula (A) wherein R2=

[4] = target: T1, EP2 prostanoid receptor (Homo sapiens, UniProt P43116); assay: GloSensor cAMP assay in CHO-K1 cells co-transfected with the EP2 receptor; assay type: cell-based
T1 construct: host or cells: CHO-K1
Excerpt: cAMP is a second messenger involved in signal transduction of G-protein coupled receptors (GPCRs) acting through Gα-s and Gα-i proteins. Because the treprostinil receptor is a GPCR, the assay provides an indication of whether the respective prostacyclin compound (or metabolite thereof) binds its receptor and activates the GPCR cell signaling cascade. The GloSensorTM assay harnesses a genetically modified form of firefly luciferase into which a cAMP-binding protein moiety has been inserted. Upon binding of cAMP, a conformational change is induced leading to increased light output. The EP2 prostanoid receptor was cotransfected with the GioSensorm plasmid (Promega) into CHO-K cells as follows. CHO-K cells were harvested when the monoloayer was at 50-90% confluence. First, cells were washed with 5 mL PBS. […] The media was aspirated, and the cell pellet was resuspended in 10 mL of growth media. Cell number was determined using a hemacytometer. […] For small scale transfections of up to 20 wells, the pGLoSensor-22F cAMP plasmid (Promega, Cat #: E2301) (2 apg): […] Cat #: […] P2271) ratio was diluted to a final concentration of 12.6 ng/μL (total plasmid) in Opti-MEM I reduced-serum medium (Life Technologies, Cat #: 1985062). Next, 6 μL of FuGENE HD transfection reagent (Promega, Cat #: E2311) was added to 160 μL of diluted plasmid and mixed carefully by gentle pipetting. The complex was incubated at room temperature for 0 to 10 minutes, and then 8 μL of the complex was added per well of a 96 well white assay plate (Costar, Cat #: 3917) and gently mixed without disturbing the cell monolayer. […] Following incubation, cells were treated and analyzed. For larger scale transfections, the aforementioned steps were scaled up accordingly, and cells were frozen following the last incubation. In order to prepare frozen transfected CHO-K cells, the media was aspirated from culture flasks and cells were rinsed with 5 mL PBS. […] Cell number was determined using a hemacytometer. The media was aspirated, and the cell pellet was resuspended in freezing media (Millipore, cat #: S-002-SF) at 2.5×10^4 cells/vial. Transfected cells were incubated overnight at -80° C. before transfer to liquid nitrogen for long term storage. […] SH30071.03)). […] In preparation for cAMP measurement, the cells were equilibrated with the GloSensor cAMP reagent prior to treatment. For equilibration, the medium was carefully removed from the individual well. Next, 100 μL of equilibration medium ([…] of Glosensor Reagent stock solution (Promega, Cat #: E291), 10% FBS (Hydone, Cat #: SH30071.03) and 88% CO2 independent medium (Life Technologies, Cat #: 18045088)) was added per well of the 96-well plate, and added to the side of each well. The plate was then incubated for 2 hours at room temperature. A first pre-read measurement was taken using a microplate reader (MicroLumat Plus). Plates were incubated for an additional 10 minutes at room temperature, followed by a second pre-read measurement. […] Following treatment, each plate was read every 5 minutes for the duration of the assay using a microplate reader (MicroLumat Plus). In order to determine the fold change in cAMP relative to the control, the transfection efficiency was first determined by dividing the second pre-read measurement by the average of the corresponding pre-read measurements. Next, the normalized relative light units (RLUs) of the samples were determined by dividing the plate read measurement by the transfection efficiency. The fold change in cAMP relative to the control was then determined by dividing the normalized RLU of the samples by the normalized RLU of the control. The cAMP assay was validated using free treprostinil. […] Luminescence was then measured at room temperature. […] Nebulizer Aeroneb Pro (Aerogen) was used to nebulize treprostinil derivative compositions. Desired volume of the formulation (usually 3 mL) was loaded to the mesh head of the nebulizer. […]

[5] = physchem; conditions: organic solvent or mixture, thermodynamic from solid
Protocol: Selected treprostinil derivatives were evaluated for the use in a metered dose inhaler (MDI).
5 mg of each treprostinil compound was added in a glass bottle. Specific amount of ethanol was added by weight. An MDI valve was crimped to each bottle, and HFA propellant added through the valve to the total volume of 5 mL. Compounds were allowed to dissolve for 24 hours at room temperature. The formulations were assessed visually for solubility. The goal was to estimate the minimum ethanol concentration required to solubilize each compound in propellant.
Soluble samples presented as clear and colorless solutions. […] Non-soluble samples had white precipitate or crystals formed. Ethanol was added as a solubility aid.

T1 sequence (P43116 whole entry): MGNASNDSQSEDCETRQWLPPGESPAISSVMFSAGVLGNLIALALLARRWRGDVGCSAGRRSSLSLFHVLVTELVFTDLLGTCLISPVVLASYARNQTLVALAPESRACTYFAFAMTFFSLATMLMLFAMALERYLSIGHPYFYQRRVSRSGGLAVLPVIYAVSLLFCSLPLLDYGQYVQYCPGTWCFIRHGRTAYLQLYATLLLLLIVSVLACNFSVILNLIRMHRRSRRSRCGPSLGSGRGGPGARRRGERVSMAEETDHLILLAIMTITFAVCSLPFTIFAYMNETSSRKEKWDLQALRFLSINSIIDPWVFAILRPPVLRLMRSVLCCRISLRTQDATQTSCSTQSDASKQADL

CCCCC[C@H](O)CC[C@@H]1[C@H]2Cc3cccc(OCC(=O)OCCCC)c3C[C@H]2C[C@H]1O [Compound C4-TR]
Effect on cell proliferation, NR8383 Cells: detectable cell inhibition [1]: No detectable cell inhibition
Effect on cell proliferation, CHO-K1 Cells: detectable cell inhibition [2]: No detectable cell inhibition

CCCCC[C@H](O)CC[C@@H]1[C@H]2Cc3cccc(OCC(=O)OC(CCC)CCCC)c3C[C@H]2C[C@H]1O (stereo partly shown) [Compound 4C8-TR]
conversion rate compared with other compound [3]: slower conversion rate than the linear compound C-TR; also recorded: slower conversion rate than the symmetrical compounds (4C7-TR and 5C9-TR)

CCCCC[C@H](O)CC[C@@H]1[C@H]2Cc3cccc(OCC(=O)OC(CCC)CCC)c3C[C@H]2C[C@H]1O [Compound 4C7-TR]
conversion rate compared with other compound [3]: slower conversion rate than the linear compound C-TR

CCCCC[C@H](O)CC[C@@H]1[C@H]2Cc3cccc(OCC(=O)OCC)c3C[C@H]2C[C@H]1O [Compound C2-TR, treprostinil ethyl ester]
EC50 ([4]; 4.5 hr incubation time, read-out: EC50 (μM) 4.5 hr): 1.84 µM
EC50 ([4]; 6.0 hr incubation time, read-out: EC50 (μM) 6.0 hr): 1.68 µM
EC50 ([4]; 8.0 hr incubation time, read-out: EC50 (μM) 8.0 hr): 1.65 µM
EC50 ([4]; EC50 (μM) 0.5 hr, 0.5 hr incubation time): 2.43 µM
EC50 ([4]; EC50 (μM) 1.0 hr, 1.0 hr incubation time): 2.27 µM
EC50 ([4]; EC50 (μM) 2.0 hr, 2.0 hr incubation time): 1.75 µM
EC50 ([4]; EC50 (μM) 3.0 hr, 3.0 hr incubation time): 1.81 µM
EC50 ([4]; EC50 (μM) 4.0 hr, 4.0 hr incubation time): 1.88 µM
EC50 ([4]; EC50 (μM) 5.0 hr, 5.0 hr incubation time): 1.91 µM
EC50 ([4]; EC50 (μM) 7.0 hr, 7.0 hr incubation time): 1.71 µM
Effect on cell proliferation, NR8383 Cells: detectable cell inhibition [1]: No detectable cell inhibition
Effect on cell proliferation, CHO-K1 Cells: detectable cell inhibition [2]: No detectable cell inhibition

CCCCCC[C@@H](C)OC(=O)COc1cccc2c1C[C@H]1C[C@@H](O)[C@H](CC[C@@H](O)CCCCC)[C@H]1C2 [(R)-2C8-TR]
conversion rate compared with other compound [3]: no significant difference

CCCCC[C@H](O)CC[C@@H]1[C@H]2Cc3cccc(OCC(=O)OCCC)c3C[C@H]2C[C@H]1O [Compound C3-TR]
Effect on cell proliferation, NR8383 Cells: detectable cell inhibition [1]: No detectable cell inhibition
Effect on cell proliferation, CHO-K1 Cells: detectable cell inhibition [2]: No detectable cell inhibition

CCCCCCOC(=O)COc1cccc2c1C[C@H]1C[C@@H](O)[C@H](CC[C@@H](O)CCCCC)[C@H]1C2 [Compound C6-TR]
Effect on cell proliferation, NR8383 Cells: detectable cell inhibition [1]: No detectable cell inhibition
Effect on cell proliferation, CHO-K1 Cells: detectable cell inhibition [2]: No detectable cell inhibition

CCCCC[C@H](O)CC[C@@H]1[C@H]2Cc3cccc(OCC(=O)OC(CCCC)CCCC)c3C[C@H]2C[C@H]1O [Compound 5C9-TR, 5-nonanyl-treprostinil]
solubility at 24 h ([5]; Solubility in HFA-134a with added ethanol): < 1000 µg/mL
solubility at 24 h ([5]; Solubility in HFA-227 with added ethanol): > 1000 µg/mL
change of potency with incubation time ([4]; cAMP dose response curves, 0.5 hr to 8 hr): increases with incubation time
ranking of activity ([4]; kinetic profile at 10 μM and 5 μM): C12-TR>C14-TR>5-nonanyl-TR>C16-TR
conversion rate compared with other compound [3]: slower conversion rate than the linear compound C-TR
conversion rate compared with other compound ([3]; listed as 5-nonanyl-TR): slower conversion rate than linear C8-TR

CCCCCC[C@H](C)OC(=O)COc1cccc2c1C[C@H]1C[C@@H](O)[C@H](CC[C@@H](O)CCCCC)[C@H]1C2 [(S)-2C8-TR]
conversion rate compared with other compound [3]: no significant difference
